According to patent US10010539B2, “Pyrazole, triazole and tetrazole orexin receptor antagonists” (MERCK SHARP & DOHME CORP., priority 2014, dated 2018):

Columns and labels:
[1] = target: hOXIR (orexin-1 receptor) (Homo sapiens, UniProt O43613); test: FLIPR Ca2+ Flux Assay, orexin-1 receptor (hOXIR FLIPR); type: cell-based; conditions: CHO cells expressing the orexin-1 receptor (method text: rat; table head: hOXIR); agonist 70 pM Ala-6,12 human orexin-A
In short: (§1)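 Steps: Fluo-4AM loading of CHO cells (rat OX1R or human OX2R) for 60 min at 37 °C; 5 min compound preincubation; addition of Ala-6,12 orexin-A at 70 pM final; 5 min fluorescence recording. Antagonist IC50 is derived from peak heights against the uninhibited agonist response.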

[2] = target: human orexin-2 receptor (Homo sapiens (Human), UniProt O43614); test: FLIPR Ca2+ Flux Assay, orexin-2 receptor (hOX2R FLIPR); type: cell-based; conditions: CHO cells expressing the human orexin-2 receptor; agonist 70 pM Ala-6,12 human orexin-A
In short: as §1

Chain of human orexin-2 receptor (O43614 whole entry): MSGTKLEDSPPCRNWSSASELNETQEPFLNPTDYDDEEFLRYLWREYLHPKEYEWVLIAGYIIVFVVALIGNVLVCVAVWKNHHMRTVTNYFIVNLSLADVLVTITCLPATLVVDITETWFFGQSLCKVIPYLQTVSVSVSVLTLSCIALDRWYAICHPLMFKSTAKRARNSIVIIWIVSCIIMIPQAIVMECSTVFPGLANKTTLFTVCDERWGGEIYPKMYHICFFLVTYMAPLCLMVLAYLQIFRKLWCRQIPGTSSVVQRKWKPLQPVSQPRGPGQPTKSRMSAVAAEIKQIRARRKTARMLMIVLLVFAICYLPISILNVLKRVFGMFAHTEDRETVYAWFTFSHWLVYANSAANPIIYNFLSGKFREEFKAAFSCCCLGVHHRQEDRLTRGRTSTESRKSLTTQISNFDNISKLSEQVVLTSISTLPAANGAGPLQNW

SMILES	IC50 [1] [nM]	IC50 [2] [nM]
Cc1nn([C@@H]2CC[C@@H](C)N(C(=O)c3ccccc3C3CC3)C2)nc1C(C)(C)O [Example 70, 2-(2-{(3R,6R)-1-[(2-Cyclopropylphenyl)carbonyl]-6-methylpiperidin-3-yl}-5-methyl-2H-1,2,3-triazol-4-yl)propan-2-ol]	760	8.8
C[C@@H]1CC[C@@H](n2ncc(C(C)(C)O)n2)CN1C(=O)c1ncccc1-n1nccn1 [Example 58, 2-{2-[(3R,6R)-6-Methyl-1-{[3-(2H-1,2,3-triazol-2-yl)pyridin-2-yl]carbonyl}piperidin-3-yl]-2H-1,2,3-triazol-4-yl}propan-2-ol]	> 10000	44.9
C[C@@H]1CC[C@@H](n2ncc(C(C)(C)O)n2)CN1C(=O)c1nccnc1-c1ccccn1 [Example 42, 2-(2-{(3R,6R)-6-methyl-1-[(3-pyridin-2-ylpyrazin-2-yl)carbonyl]piperidin-3-yl}-2H-1,2,3-triazol-4-yl)propan-2-ol]	> 10000	622
Cc1nn([C@@H]2CC[C@@H](C)N(C(=O)c3cccnc3OCC(F)F)C2)nc1C(C)(C)O [Example 64, 2-{2-[(3R,6R)-1-{[2-(2,2-Difluoroethoxy)pyridin-3-yl]carbonyl}-6-methylpiperidin-3-yl]-5-methyl-2H-1,2,3-triazol-4-yl}propan-2-ol]	2990	8.8
C[C@@H]1CC[C@@H](n2cc(C(C)(C)O)cn2)CN1C(=O)c1ccccc1SC(F)(F)F [Example 88, 2-{1-[(3R,6R)-6-Methyl-1-({2-[(trifluoromethyl)sulfanyl]phenyl}carbonyl)piperidin-3-yl]-1H-pyrazol-4-yl}propan-2-ol]	7930	15.2
C[C@@H]1CC[C@@H](n2ncc(C(C)(C)O)n2)CN1C(=O)c1ccccc1-n1nccn1 [Example 25, (2-(2H-1,2,3-triazol-2-yl)phenyl)((2R,5R)-5-(4-(2-hydroxypropan-2-yl)-2H-1,2,3-triazol-2-yl)-2-methylpiperidin-1-yl)methanone]	594	7.5
